In patent publication US7629318B2, “Immunosuppressant compounds, methods and uses related thereto” (priority 2002, dated 2009):
Square brackets hold non-standard residues; d marks the D form. Peptide text beside a SMILES is read from it. * marks the point of attachment. Gly(1-amidinopiperidin-4-yl) = N=C(N)N1CCC([C@H](N)C(=O)O)CC1; Tetrahydroisoquinolin(2-yl) = c1ccc2c(c1)CCN(*)C2; Tic = O=C(O)[C@@H]1Cc2ccccc2CN1; Cha = N[C@@H](CC1CCCCC1)C(=O)O; X4 = OCCOCCN(CCc1ccccc1)*; Nle = CCCC[C@H](N)C(=O)O; X2 = OCCOCCN(Cc1ccccc1)*; X5 = OCCN(Cc1ccccc1)*

Assays:
[1] = tested on: T-cell proliferation, DR14-LN; conditions: for IC50: read-out: Immunsupressive assays DR14-LN (IC50); for Immunsupressive assays DR14-LN (Max) % Inhibition: maximal inhibition
[2] = Stability of compounds in mouse blood plasma; format: in vitro ADME
Description: (§1) The stability of the peptidomimetic compounds was determined in rat (Charles River Laboratories, Sulzfeld), mouse (Charles River Laboratories, Sulzfeld) and human (Bayerisches Rotes Kreuz, München) blood plasma (E. R. Garrett and M. R. Gardner, J Pharmaceutical Sciences 71 (1982) 14-25).
(§2) Compound stock solutions were diluted into blood plasma to give a final compound concentration of 5 μM and the mixtures were incubated at 37° C. At 0, 6 and 24 hours 1 ml samples were drawn and the plasma proteins were precipitated by the addition of 3 ml acetonitrile p.a. and whirlmixing. The precipitate was pelleted by centrifugation at 2000 g for 5 minutes. The supernatant was evaporated off to dryness and the residue was reconstituted in 400 μl 50% acetonitrile, 0.1% TFA in water.
(§3) PBS controls were prepared for unstable compounds accordingly.

[3] = biological target: DR4Dw4 (DRA1*0101 DRB1*0401) (Homo sapiens, UniProt P01903+P01911, A100K/A169T/F76Y/I96L/K127E/L162R/M171V/N62H/P40V/Q125Y/R42H/S133A/S149N/S66Y/V115G/V209L/W38E); assay: Competitive binding to MHC-II protein DR4Dw4
Description: (§4) Interaction mixtures lacking the peptidomimetic compound and both peptide mimetic compound and MHC-II were used as positive and negative controls, respectively. All interaction mixtures were set up in duplicates and were incubated for 16 hours at room temperature.
(§5) After washing with PBS, 60 μl of the MHC-II-compound interaction mixtures were transferred from the interaction plate to the appropriate wells of the capture plate and incubated for 2 h at 4° C. The wells were washed six times with 200 μl/well of cooled (4 to 8° C.) 1×DELFIA wash (Wallac-ADL-GmbH, Freiburg), incubated with 100 μl of cooled Europium-streptavidin conjugate (Wallac-ADL-GmbH, Freiburg; diluted 1/1000 with DELFIA assay buffer) for 30 minutes at 4° C., again washed six times with cooled 1×DELFIA wash and, finally, incubated with 200 μl cooled DELFIA enhancement solution (Wallac-ADL-GmbH, Freiburg) for one hour at room temperature before reading the time-resolved europium fluorescence at λex Eu^3+: 340 nm and λem Eu^3+: 613 (615) nm (Wallac Victor^2 1420 Multilabel Counter, Wallac-ADL-GmbH, Freiburg).

[4] = biological target: DR1 (DRA1*0101 DRB1*0101) (Homo sapiens, UniProt P01903+P01911, A100R/D57E/F55L/F60I/F76Y/I96L/L162R/M171V/P40L/Q125E/R42F/V115G/Y59C); assay: Competitive binding to MHC-II protein DR1; conditions: Protein binding IC50 (nM) 0101, 0101
Description: as §4, §5

[5] = Stability of compounds in rat blood plasma; format: in vitro ADME
Description: as §1, §2, §3

[6] = tested on: T-cell proliferation, lymph node cells of chimeric 0401-IE transgenic mice; conditions: DR4-LN; for Immunsupressive assays DR4-LN (Max) % Inhibition: maximal inhibition; for IC50: read-out: Immunsupressive assays DR4-LN (IC50)
Description: The compounds were tested as follows to inhibit the proliferative T cell response of antigen-primed lymph node cells from mice carrying a chimeric mouse-human class II transgene with an RA-associated peptide binding site, and lack murine class II molecules (Muller et al., 1990; Woods et al., 1994; Current Protocols in Immunology, Vol. 2, 7.21; Ito et al., 1996). Here, the immunization takes place in vivo, but the inhibition and readout are ex vivo. […] These mice lack murine MHC class II, and thus, all Th responses are channelled through a single human RA-associated MHC class II molecule (Ito et al. 1996). These transgenic mice represent a model for testing human class II antagonists.
1.5×10^5 cells are incubated in 0.2 ml wells of 96-well tissue culture plates in the presence of ovalbumin (30 μg per well—half-maximal stimulatory concentration) and a dilution series of the compound under test (from around 0.1 to 200 uM) in serum free HL-1 medium containing 2 mM L-glutamine and 0.1 g/l Kanamycin for three days. Antigen specific proliferation is measured by 3H-methyl-thymidine (1 μCi/well) incorporation during the last 16 h of culture (Falcioni et al., 1999). Cells are harvested, and 3H incorporation measured using a scintillation counter (TopCount, Wallac Finland).

[7] = biological target: DR4Dw14 (DRA1*0101 DRB1*0404) (Homo sapiens, UniProt P01903+P01911, A100R/A169T/F76Y/I96L/K127E/L162R/M171V/N62H/P40V/Q125Y/R42H/S133A/S149N/S66Y/V209L/W38E); assay: Competitive binding to MHC-II protein DR4Dw14; conditions: 0404; read-out: Protein binding IC50 (nM) 0404
Description: as §4, §5

[8] = biological target: Cathepsin D (EC 3.4.23.5 from bovine spleen) (Bos taurus, UniProt P80209)
Description: The stability of the peptidomimetic compounds towards lysosomal degradation was examined by incubation with Cathepsin B1 (EC 3.4.22.1 from bovine spleen; Sigma-Aldrich, Taufkirchen; dissolved at 10000 U/l in ddH2O) and D (EC 3.4.23.5 from bovine spleen; Sigma-Aldrich, Taufkirchen; dissolved at 10000 U/l in ddH2O) for four hours at 37° C. using a compound concentration of 50 μM and an enzyme/substrate ratio of 0.4 U/μmol. The samples contained 25 ppm 4-isopropyl benzyl alcohol (IPBA; Sigma-Aldrich, Taufkirchen) as internal standard.
Assay buffer was prepared by adding 35 μl of a 1% IPBA in DMSO solution and 28 μl of a 10000 U/l Cathepsin B1 or Cathepsin D stock solution to 14 ml of 100 mM sodium acetate, 1 mM EDTA, 1 mM DTT, pH 5.00 or 100 mM sodium acetate, pH 4.50, respectively. 8.8 μl of a 5 mM (or 4.4 μl of a 10 mM) compound stock solution (in 10% DMSO/water) were placed into a 1.5 ml Eppendorf tube. The reaction was started by adding 875 μl fully supplemented assay buffer to each tube, whirlmixing and incubation at 37° C. At 0 and 4 hours 400 μl samples were taken and the enzyme was inactivated by addition of 40 μl […] TFA aq. The samples were kept frozen at −20° C. until analysis by RP-HPLC (200 μl injection volume; Nucleosil 100-5 C18, 12.5×4.6 cm; Gradient: 20-50% acetonitrile in 30 min).
Compounds co-eluting with the internal standard during RP-HPLC analysis were tested without the standard as Example 16.

[9] = Stability of compounds in human blood plasma; format: in vitro ADME
Description: as §1, §2, §3

[10] = biological target: Cathepsin B1 (EC 3.4.22.1 from bovine spleen) (Bos taurus, UniProt P07688); conditions: Cathepsin B, 4 h

Compound	IC50 [1]	Stability (Arbitrary units) Mouse 6 h [2]	Stability (Arbitrary units) Mouse 24 h [2]	IC50 [3]	IC50 [4]	Stability (Arbitrary units) Rat 6 h [5]	Stability (Arbitrary units) Rat 24 h [5]	Immunsupressive assays DR4-LN (Max) % Inhibition [6]	IC50 [6]	IC50 [7]	Stability (Arbitrary units) Cath D 4 h [8]	Stability (Arbitrary units) Human 6 h [9]	Stability (Arbitrary units) Human 24 h [9]	Stability (Arbitrary units) Cath B 4 h [10]	Immunsupressive assays DR14-LN (Max) % Inhibition [1]
CCCC[C@H](NC(=O)[C@@H]1Cc2ccccc2CN1C(=O)[C@H](CCCNC(=N)N)NC(=O)[C@H](CC1CCCCC1)NC(C)=O)C(=O)N(CCOCCO)Cc1ccccc1 [Compound P98, Ac-Cha-Arg-Tic-Nle-N(Bn)CH2CH2OCH2CH2OH] (Ac-[Cha]R[Tic][Nle]-X2)	> 200 µM	87 Arbitrary units	54 Arbitrary units	4.7 µM	640 nM	71 Arbitrary units	60 Arbitrary units	67%	69 µM	1300 nM	104 Arbitrary units	116 Arbitrary units	121 Arbitrary units	104 Arbitrary units	
CCCC[C@H](NC(=O)[C@@H]1Cc2ccccc2CN1C(=O)[C@H](CCCNC(=N)N)NC(=O)[C@H](CC1CCCCC1)NC(C)=O)C(=O)N(CCOCCO)CCc1ccccc1 [Compound P88] (Ac-[Cha]R[Tic][Nle]-X4)	37 µM	125 Arbitrary units	128 Arbitrary units	10 µM	2000 nM	77 Arbitrary units	55 Arbitrary units		105 µM	5700 nM	101 Arbitrary units	133 Arbitrary units	123 Arbitrary units	94 Arbitrary units	
CCCC[C@H](NC(=O)[C@@H]1Cc2ccccc2CN1C(=O)[C@@H](NC(=O)[C@H](CC1CCCCC1)NC(C)=O)C1CCN(C(=N)N)CC1)C(=O)N(CCO)Cc1ccccc1 [Compound P78, Ac-Cha-Gpg-Tic-Nle-N(Bn)CH2CH2OH] (Ac-[Cha][Gly(1-amidinopiperidin-4-yl)][Tic][Nle]-X5)	36 µM	90 Arbitrary units	113 Arbitrary units	2.6 µM	430 nM	184 Arbitrary units	107 Arbitrary units	97%	36 µM	1200 nM	108 Arbitrary units	73 Arbitrary units	130 Arbitrary units	100 Arbitrary units	100%
CCCC[C@H](NC(=O)[C@@H]1Cc2ccccc2CN1C(=O)[C@@H](NC(=O)[C@H](CC1CCCCC1)NC(C)=O)C1CCN(C(=N)N)CC1)C(=O)N1CCc2ccccc2C1 [Compound P77, Ac-Cha-Gpg-Tic-Nle-tetrahydroisoquinoline] (Ac-[Cha][Gly(1-amidinopiperidin-4-yl)][Tic][Nle]-{Tetrahydroisoquinolin(2-yl)})	14 µM	141 Arbitrary units	181 Arbitrary units	8.7 µM	1900 nM	129 Arbitrary units	57 Arbitrary units	100%	10 µM	3600 nM	95 Arbitrary units	111 Arbitrary units	114 Arbitrary units	107 Arbitrary units	99%
